Measured values reported in article PMC10107299, “Neutralizing the Impact of the Virulence Factor LecA from Pseudomonas aeruginosa on Human Cells with New Glycomimetic Inhibitors” (Angewandte Chemie (International Ed. in English), 2023).
In brackets after ≈: the same amount, converted by molar mass. Where two headings read alike, the source gives them in different places.

Columns and labels:
[1] = Kinetic solubility in TBS/Ca2+ buffer (HPLC-MS); format: physicochemical; conditions: aqueous buffer, kinetic from dmso stock; TBS/Ca2+ buffer pH 7.4, 1 % DMSO, N≥3; read-out: Solubility S (kinetic)
Method: Next, we quantified the solubility of at least one representative of each new class and of one parent bisacylhydrazone in aqueous media (Table 1). […]
TBS/Ca2+ buffer (20 mM Tris, 137 mM NaCl, 2.6 mM KCl at pH 7.4 supplemented with 1 mM […]
CaCl2) in presence of 25% DMSO. […]
Kinetic solubility was determined on the analytical HPLC-MS using Compass QuantAnalysis quantification software (Bruker). Samples were prepared from DMSO stock solutions by dilution with TBS/Ca2+ buffer to 100 µM with 1% DMSO present. Samples were incubated on a shaker for 1 h at r.t., centrifuged (21380 g, 20 min), supernatants were diluted with DMSO (1:3), analyzed by HPLC-MS and fitted to the individual calibration curves.
Every experiment was repeated independently at least three times. […]

[2] = In vitro metabolic stability, mouse liver microsomes; format: in vitro ADME; conditions: N=3, read-out: CLint MLM
Method: (§1) Acetonitrile and caffeine were dispensed using a Mantis Formulatrix. Then samples were centrifuged for 20 min at 2.270 x g at 4 °C and the supernatants were transferred to 96-well Greiner V-bottom plates. Peak areas of each compound and of the internal standard were analyzed using the MultiQuant 3.0 software (AB Sciex). Peak areas of the respective compound were normalized to the internal standard peak area and to the respective peak areas at time point 0 min: (C/D)/(A/B) with A: peak area of the compound at time point 0 min, B: peak area of the internal standard at time point 0 min, C: peak area of the compound at the respective time point, D: peak area of the internal standard at the respective time point.
(§2) In vitro metabolic stability assay
(§3) Liver microsomes (mouse and human, Thermo Fisher) were thawed slowly on ice. 20 mg/mL of microsomes, 2 µL of a 100 µM solution of every compound and 183 µL of 100 mM phosphate buffer were incubated 5 min at 37 °C in a water bath. Reactions were initiated using 10 µL of 20 mM NADPH (CarlRoth). Samples were incubated in three replicates at 37 °C under gentle agitation at 150 rpm. At 0, 5, 15, 30, and 60 min, reactions were terminated by the addition of 180 µL acetonitrile using a Mantis Formulatrix dispenser. Samples were vortexed for 5 min using an Eppendorf MixMate vortex mixer and centrifuged at 2.270 x g for 20 min at 4 °C. The supernatants were transferred to 96-well Greiner V-bottom plates, sealed and analyzed according to the section HPLC-MS analysis. Peak areas of the respective time point of the compounds were normalized to the peak area at time point 0 min. Then half-life was calculated using linear regression (Microsoft Excel). Clint [µL/min/mg protein] was calculated using the following formula: […]

[3] = In vitro metabolic stability, human liver microsomes; format: in vitro ADME; conditions: N=3, read-out: CLint HLM
Method: We then determined the in vitro metabolic stability in plasma and liver microsomes as well as plasma protein binding for a selected subset of the synthesized LecA inhibitors, i.e. D1, D2, H1, H2 and L2 and compared them to the parent bisacylhydrazone 14 (Table 2). […] The metabolic stability of the compounds differed in presence of human liver microsomes (HLM). Introduction of a pyridine ring decreased stability (H1 CLint=28.6 μL min^−1/mg protein, H2 CLint=32.5 μL min^−1/mg protein) compared to the benzene analogues (D1 CLint=21.9 μL min^−1/mg protein, D2 CLint=21.0 μL min^−1/mg protein) and to the parent acylhydrazone 14 (CLint=19.6 μL min^−1/mg protein). […]
as §1, with “mixer (Eppendorf). Acetonitrile” for “Acetonitrile”
as §2, §3

in vitro = in vitro ADME; conditions: pH 7.4, 37 °C
Method: Then, we analyzed the stability of the compounds in plasma. […] The observed increase in plasma stability of the tested amide derivatives compared to bisacylhydrazone 14 supports our design hypothesis for the isosteric replacement of the bisacylhydrazone linking motif. […]
Each compound dissolved in DMSO was added to mouse plasma (pH 7.4, 37 °C) or to human plasma (pH 7.4, 37 °C) to yield a final concentration of 1 µM. In addition, procaine and procainamide (dissolved in DMSO) were added to mouse plasma or to human plasma (pH 7.4, 37 °C) to yield a final concentration of 1 µM. Procaine served as positive control as it is unstable in mouse plasma. Procainamide served as negative control as it is stable in mouse plasma. The samples were incubated for 0 min, 15 min, 30 min, 60 min, 90 min, 120 min and 240 min at 37 °C. At each time point, 10 µl of the respective sample was extracted with 90 µL acetonitrile containing 12.5 ng/mL caffeine as internal standard for 5 min at 2000 rpm on a MixMate vortex […]
as §1, with “mixer (Eppendorf). Acetonitrile” for “Acetonitrile”, “point. […]” for “point.”
2 hours at 800 rpm on an Eppendorf MixMate vortex-mixer. Then samples were withdrawn from the respective chambers. To 25 µL of each dialysis sample, 25 µL of plasma and to 25 µL of plasma sample, 25 µL of dialysis buffer was added. Then 150 µL ice-cold extraction solvent (ACN/H2O (90:10) containing 12.5 ng/mL caffeine as internal standard) was added. Samples were incubated for 30 min on ice. Then samples were centrifuged at 4 °C at 2270 x g for 10 min.

P. aeruginosa = test system: P. aeruginosa; design: method as in PMID 25136128, PMID 25044671; conditions: 10 mM; cited from earlier work
P. aeruginosa PAO1 = assay: Invasion assay of P. aeruginosa PAO1 into H1299 cells; format: cell-based, Pseudomonas aeruginosa; conditions: PAO1 into H1299 cells, N≥4
Method: P. aeruginosa is able to invade non‐phagocytic cells via a lipid zipper mechanism.[10] Binding of LecA to the glycosphingolipid Gb3 followed by LecA‐induced receptor clustering plays a crucial role in this process. The LecA ligand 4‐nitrophenyl α‐ D‐galactopyranoside (PNPG) has been previously shown to interfere with these events at a high concentration of 10 mM leading to a reduction of bacterial invasiveness to 30–60 % as compared to untreated bacteria (100 % invasiveness).[10, 31] For invasion assays, H1299 cells were incubated with P. aeruginosa in presence and absence of LecA inhibitors, followed by killing of extracellular bacteria with the antibiotic amikacin. Then, all intracellular bacteria were released by lysis of the human cells and viable bacteria were quantified by plating. To assess the impact of LecA inhibitors on the invasiveness, the influence of the divalent LecA inhibitor L2 on bacterial invasion into host cells was evaluated and compared to PNPG. […] In contrast, the divalent LecA ligand L2 achieved an invasion decrease to 44 % already at 100 μM (Figure 5c). L2 was thus able to reach a similar reduction of invasion at a 100‐fold lower concentration than the one needed for PNPG. […]
lectin-inhibitor solution for 24 h at 37 °C. In order to depict exactly the same position for each wound, marker lines were drawn on the bottom of the 12-well plates for each well. The samples were imaged with an EVOS microscope (PEQLAB by VWR Life Sciences, Avantor […]
Excel. […]
A chromosomally GFP-tagged Gentamicin-resistant Pseudomonas aeruginosa PAO1 strain was cultured (LB medium supplemented with 60 µg/mL Gentamicin, 37 °C, 180 rpm, 16 h) and invasion assays were performed in analogy to Eierhoff et al..[13] 1.5 x 10^4 H1299 cells per well were seeded one day prior to the invasion assay in a 96-well plate with flat bottom. An […]
overnight culture of P. aeruginosa was centrifuged for 5 min at 3000 x g, washed with PBS (- /-) and re-suspended in RPMI 1640 medium. The newly synthesized divalent LecA ligand L2 was compared to 4-nitrophenyl α-D-galactopyranoside (PNPG; Sigma-Aldrich, Chemie GmbH, Darmstadt, Germany). […]
Subsequently, cells were washed three times with DPBS and lysed by incubation with 0.25% (v/v) Triton X-100 (Carl Roth GmbH & Co. KG, Karlsruhe, Germany) for 5 min at 37 °C and 180 rpm. […] Bacterial colonies were counted the next day. […] The invasion rate was calculated as the number of intracellularly localized bacteria divided by the total number of non-treated bacteria, bacteria that were not treated with any ligands and neither amikacin, thus the number of P. aeruginosa that successfully invaded or stayed attached to the host cells. Experiments were repeated independently at least four times (N ≥ 4) and evaluated […]

| Compound | solubility kinetic at 1 h [1] | microsomal CLint at 1 µM [2] | microsomal CLint at 1 µM [3] | half-life at 1 µM (in vitro; human plasma, read-out: Plasma stability t1/2 Human) | half-life at 1 µM (in vitro; mouse plasma, read-out: Plasma stability t1/2 Mouse) | Bacterial invasiveness (untreated bacteria 100 %) (P. aeruginosa) | Bacterial invasiveness (untreated bacteria 100 %) (P. aeruginosa PAO1; 100 μM inhibitor) | Bacterial invasiveness (untreated bacteria 100 %) (P. aeruginosa PAO1; 10 mM inhibitor) |
| --- | --- | --- | --- | --- | --- | --- | --- | --- |
| O=C(N/N=C/c1ccc(OCCOc2ccc(/C=N/NC(=O)c3ccc(O[C@@H]4O[C@H](CO)[C@H](O)[C@H](O)[C@H]4O)cc3)cc2)cc1)c1ccc(O[C@@H]2O[C@H](CO)[C@H](O)[C@H](O)[C@H]2O)cc1 [Compound 14, reference compound] | 1.6 ± 0.4 µM (≈ 1.38 µg/mL) | < 23 µL/min/mg | 19.6 µL/min/mg | 2.06 h | 0.815 h | – | – | – |
| O=[N+]([O-])c1ccc(O[C@H]2O[C@H](CO)[C@H](O)[C@H](O)[C@H]2O)cc1 [PNPG, 4-nitrophenyl α-D-galactopyranoside, reference compound] | – | – | – | – | – | 30–60% | 89% | 44% |
